Assay results from US5034392A, “4-(3-(4-oxothiazolidinyl)butynylamines” (Hoechst-Roussel Pharmaceuticals Incorporated, priority 1990, dated 1991).
Structures can show the parent of a compound that is named as a salt.

Tests used:
[1] = phenyl-para-quinone writhing assay in mice (analgesia); type: in vivo
From the text: The compounds of the present invention are useful as analgesic agents due to their ability to alleviate pain in mammals. […] Exptl. Biol. Med., 95, 729 (1957)]. The analgesic activity of some of the compounds of the invention expressed in terms of percent inhibition of writhing is given in Table 1.

[2] = antihypertensive activity in the spontaneous hypertensive rat by the indirect tail cuff method; type: in vivo; conditions: at 50 mg/kg p.o, treated orally for three days, drop measured on the third day
Procedure: Antihypertensive activity is measured in the spontaneous hypertensive rat by the indirect tail cuff method. […] In this procedure a group of five animals is treated orally for three days with the test compound in relation to a control group of the same number. The drop in blood pressure is measured on the third day following administration.

CC1SCC(=O)N1CC#CCN1CCC(O)(c2ccccc2)CC1.O=C(O)C(=O)O (stereo not shown) [2-Methyl-3-(4-(4-hydroxy-4-phenylpiperidino)-2-butynyl)-4-oxothiazolidine oxalate]
% Inhibition of Writhing ([1]; at 20 mg/kg s.c.): 51%

O=C(O)/C=C\C(=O)O.O=C(O)/C=C\C(=O)O.O=C1CSCN1CC#CCN1CCN(C(c2ccccc2)c2ccc(Cl)cc2)CC1 (stereo not shown) [3-(4-(1-(4-Chlorobenzhydryl)piperazino)-2-butynyl)-4-oxothiazolidine bis maleate]
mm Hg decrease (decrease in mean arterial blood pressure) [2]: 28 mm Hg

O=C1CSCN1CC#CCN1CCN(c2ccc(F)cc2)CC1 [3-(4-(1-(4-Fluorophenyl)piperazino)-2-butynyl-4-oxothiazolidine oxalate]
mm Hg decrease (decrease in mean arterial blood pressure) [2]: 71 mm Hg

O=C1CSCN1CC#CCN1CCN(c2ccncc2)CC1 [3-(4-(4-Pyridyl)piperazino)-2-butynyl)-4-oxothiazolidine sesquioxalate]
mm Hg decrease (decrease in mean arterial blood pressure) [2]: 30 mm Hg

O=C1CSCN1CC#CCN1CCC(c2noc3cc(Cl)ccc23)CC1 [3-(4-[3-(4-piperidyl)-6-chloro-benzisoxazole]-2-butynyl)-4-oxothiazolidine oxalate]
% Inhibition of Writhing ([1]; at 20 mg/kg s.c.): 39%

COc1ccccc1N1CCN(CC#CCN2CSCC2=O)CC1 [3-[4-(1-(2-Methoxyphenyl)piperazino)-2-butynyl]-4-oxothiazolidine sesquioxalate]
mm Hg decrease (decrease in mean arterial blood pressure) [2]: 51 mm Hg

O=C1CSC2(CCCC2)N1CC#CCN1CCN(C(c2ccccc2)c2ccc(Cl)cc2)CC1 (stereo not shown) [4-(4-(1-(4-Chlorobenzhydryl)piperazino)-2-butynyl)-1-thia-4-azaspiro[4.4]nonane-3-one trisoxalate]
% Inhibition of Writhing ([1]; at 20 mg/kg s.c.): 30%

N=C(N)NCCN1CCCCCCC1 [guanethidine, reference compound]
mm Hg decrease (decrease in mean arterial blood pressure) [2]: 20 mm Hg

CC(C)Cc1ccc(C(C)C(=O)O)cc1 (stereo not shown) [ibuprofen, reference compound]
% Inhibition of Writhing ([1]; standard, at 10.4 mg/kg s.c.): 50%

CC(C)=CCN1CCC2(C)c3cc(O)ccc3CC1C2C (stereo not shown) [pentazocine, reference compound]
% Inhibition of Writhing ([1]; standard, at 1.3 mg/kg s.c.): 50%
